Assay results from patent US20210255193A1, “LYSINE REACTIVE PROBES AND USES THEREOF” (The Scripps Research Institute, priority 2017, published 2021).

Key:
[1] = molecular target: T1, TRMT10C Mitochondrial ribonuclease P protein 1 (Homo sapiens, UniProt Q7L0Y3); test: competitive isoTOP-ABPP; assay type: binding
T1 construct: isoTOP-ABPP experiments performed in cell lysates (in vitro); endogenous in cells; host or cells: soluble proteome of human cancer cell lines (MDA-MB-231; Ramos and Jurkat also prepared)
T1 sequence (Q7L0Y3 40-403): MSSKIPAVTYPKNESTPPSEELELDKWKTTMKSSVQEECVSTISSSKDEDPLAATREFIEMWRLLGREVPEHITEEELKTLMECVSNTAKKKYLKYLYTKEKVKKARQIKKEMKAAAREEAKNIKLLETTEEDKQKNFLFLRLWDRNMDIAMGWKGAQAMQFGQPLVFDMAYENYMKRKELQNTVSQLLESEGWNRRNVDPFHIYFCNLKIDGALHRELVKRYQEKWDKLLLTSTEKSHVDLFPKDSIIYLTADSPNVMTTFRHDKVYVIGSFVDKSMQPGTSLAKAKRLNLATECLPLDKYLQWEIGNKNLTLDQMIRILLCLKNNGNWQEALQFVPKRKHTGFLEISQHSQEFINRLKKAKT
Summary of the method: (§1)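 Here, isoTOP-ABPP measures loss of STP-alkyne labeling at individual lysines after fragment exposure in lysate. Activated esters are dosed at 50 μM, guanidinylating agents at 100 μM; the probe follows at 0.1 mM for 1 h. R ≥4 marks a liganded lysine.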

[2] = molecular target: T2, AP1G1 AP-1 complex subunit gamma-1 (Homo sapiens, UniProt O43747); test: competitive isoTOP-ABPP; assay type: binding
T2 construct: isoTOP-ABPP experiments performed in cell lysates (in vitro); endogenous in cells; host or cells: MDA-MB-231 soluble lysate
T2 sequence (O43747 1-822): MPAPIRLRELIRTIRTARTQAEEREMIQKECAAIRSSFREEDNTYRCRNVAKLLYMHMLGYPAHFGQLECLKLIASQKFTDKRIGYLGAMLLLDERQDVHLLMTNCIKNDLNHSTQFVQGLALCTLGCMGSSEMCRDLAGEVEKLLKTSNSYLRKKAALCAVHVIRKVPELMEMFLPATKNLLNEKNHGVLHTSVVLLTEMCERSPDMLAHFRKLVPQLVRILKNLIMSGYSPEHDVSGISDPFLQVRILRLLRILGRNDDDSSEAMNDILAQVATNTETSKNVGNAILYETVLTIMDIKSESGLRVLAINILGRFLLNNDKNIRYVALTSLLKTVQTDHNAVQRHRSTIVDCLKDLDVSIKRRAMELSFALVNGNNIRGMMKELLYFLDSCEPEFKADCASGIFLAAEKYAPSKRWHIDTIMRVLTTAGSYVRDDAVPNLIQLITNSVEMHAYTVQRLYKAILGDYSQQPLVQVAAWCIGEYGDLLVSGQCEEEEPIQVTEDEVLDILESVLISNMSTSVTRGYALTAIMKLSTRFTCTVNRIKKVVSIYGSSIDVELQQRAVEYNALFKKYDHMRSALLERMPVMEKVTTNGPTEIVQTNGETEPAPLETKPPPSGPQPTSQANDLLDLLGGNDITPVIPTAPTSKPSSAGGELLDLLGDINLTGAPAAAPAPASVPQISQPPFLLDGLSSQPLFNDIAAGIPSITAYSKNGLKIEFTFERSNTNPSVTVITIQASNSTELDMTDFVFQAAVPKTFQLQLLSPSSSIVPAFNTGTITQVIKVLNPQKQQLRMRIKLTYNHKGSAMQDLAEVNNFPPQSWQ
Summary of the method: as §1

Row | isoTOP-ABPP ratio, lysine Q7L0Y3_K325 ([1]; 50 uM_231_sol_in vitro) | isoTOP-ABPP ratio, lysine O43747_K214 ([2]; 50 uM_231_sol_in vitro) | isoTOP-ABPP ratio, lysine Q7L0Y3_K325 ([1]; 100 uM_231_sol_in vitro) | isoTOP-ABPP ratio, lysine O43747_K214 ([2]; 100 uM_231_sol_in vitro) | Structure (SMILES)
1 | 1.1 | 0.8 |  |  | O=C(Oc1c(F)c(F)c(C(F)(F)F)c(F)c1F)c1cc(C(F)(F)F)cc(C(F)(F)F)c1 [fragment 47, 2,3,5,6-Tetrafluoro-4-(trifluoromethyl)phenyl 3,5-bis(trifluoromethyl)benzoate]
2 |  |  | 1.2 | 1.0 | COC(=O)NC(=NC(=O)OCC1c2ccccc2-c2ccccc21)n1cccn1 [fragment 49, N-Methoxycarbonyl-N′-9-fluorenylmethoxycarbonyl-pyrazole-1-carboxamidine]
3 |  |  | 6.2 | 1.0 | CC(C)(C)OC(=O)N=C(NC(=O)OC(C)(C)C)n1cccn1 [fragment 50, reference compound]
4 | 0.9 | 0.9 |  |  | NC(=O)c1cc(C(F)(F)F)cc(C(F)(F)F)c1 [fragment 51, reference compound]

Row | Structure (SMILES) | isoTOP-ABPP ratio, lysine Q7L0Y3_K325 ([1]; 50 uM_231_sol_in vitro) | isoTOP-ABPP ratio, lysine O43747_K214 ([2]; 50 uM_231_sol_in vitro) | isoTOP-ABPP ratio, lysine Q7L0Y3_K325 ([1]; 100 uM_231_sol_in vitro) | isoTOP-ABPP ratio, lysine O43747_K214 ([2]; 100 uM_231_sol_in vitro)
5 | O=C(ON1C(=O)CCC1=O)c1cc(C(F)(F)F)cc(C(F)(F)F)c1 [fragment 46, 3,5-Bis(trifluoromethyl)benzoic acid NHS ester] | 1.0 | 1.0 |  | 
